# Source: US11613533B2, “Compounds useful for inhibiting RET kinase” (Eli Lilly and Company, priority 2020, dated 2023)
# Residue numbers refer to the chain shown, from its start.
# Key:
# [1] = target: T1, KIF5B-RET WT in HEK293 cells (Homo sapiens, UniProt P07949); assay: RET cell assay (In-Cell Western, phospho-RET Y1062), wildtype; assay type: cell-based; conditions: HEK293, doxycycline-induced KIF5B-RET WT, 1 hr compound treatment; read-out: EC50, inhibition of intracellular autophosphorylation of RET at tyrosine 1062, wildtype cells
# T1 construct: expressed in transfected cells; host or cells: HEK293; the other entry of the earlier key: KIF5B (P33176, Kinesin-1 heavy chain)
# T1 sequence (P07949 713-1063 limits assumed): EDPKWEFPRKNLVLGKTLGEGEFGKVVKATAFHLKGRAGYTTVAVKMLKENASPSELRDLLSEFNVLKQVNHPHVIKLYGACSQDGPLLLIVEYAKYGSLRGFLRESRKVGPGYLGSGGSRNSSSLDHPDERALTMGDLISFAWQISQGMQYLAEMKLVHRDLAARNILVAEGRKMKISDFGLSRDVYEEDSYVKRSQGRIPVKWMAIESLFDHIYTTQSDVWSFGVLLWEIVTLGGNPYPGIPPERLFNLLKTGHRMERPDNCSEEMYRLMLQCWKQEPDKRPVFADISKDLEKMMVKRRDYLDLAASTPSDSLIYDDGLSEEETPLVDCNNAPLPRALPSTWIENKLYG
# Description: (§1) Compounds of formulas (I), (II), and (III) are screened for their ability to inhibit the intracellular autophosphorylation of RET at tyrosine 1062 as detected by In-Cell Western. HEK293 cells containing a doxycycline-inducible plasmid for inducible expression of KIF5B-RET WT and RET mutant forms V804M and G810S are seeded at 25,000 cells/well into black poly-D-lysine pre-coated 384-well plates (Corning, Catalog No. 356697). Expression of KIF5B-RET is induced with doxycycline at 1 μg/mL and cells are incubated at 37° C. overnight. Compounds are prepared in a threefold serial dilution in DMSO before further diluting 1:100 in media prior to the addition to the cells (0.1% final DMSO concentration). Compound treatment is performed for 1 hr at 37° C. followed by fixation of cells with 4% formaldehyde for 20 min at RT and cell permeabilisation with ice-cold MeOH for 10 min at RT. Cells are incubated with Intercept® blocking buffer (Li—COR, Catalogue No. 927-70010) for 1 hr at RT. Incubation with primary antibodies against human phospho-RET (Y1062) (R&D, Catalogue No. AF5009, 1/250 dilution) and human glyceraldehyde-3-phosphate dehydrogenase (clone 6C5, Merck, Catalog No. MAB374, 1/1000 dilution) are performed overnight at 4° C. Incubation with secondary antibodies IRDye® 800CW goat anti-rabbit IgG (Li—COR, Catalogue No. 926-32211, 1/1000 dilution) and IRDye® 680CW goat anti-mouse IgG (Li—COR, Catalogue No. 926-68070, 1/1000 dilution) are performed for 1 hr at RT. All antibody dilutions are done in Intercept® blocking buffer containing 0.05% Tween20. After washing cells with PBS-T (Cell Signaling technology, Catalogue No. 9809), the images are acquired on a Li—COR Odyssey LCx at 700 and 800 nm. Percent of DMSO control is calculated with 100% signal referring to control conditions containing no compound (0.4% DMSO only) and 0% signal represented by conditions containing control compound. The % of DMSO control values are fit to a 4 parameter logistic curve, and the determined EC50 value is defined as the estimated concentration of inhibitor at the inflexion point of the fitted curve.
# [2] = target: T2, KIF5B-RET mutant form V804M in HEK293 cells (Homo sapiens, UniProt P07949, V804M); assay: RET cell assay (In-Cell Western, phospho-RET Y1062), V804M; assay type: cell-based; conditions: HEK293, doxycycline-induced KIF5B-RET V804M, 1 hr compound treatment; read-out: EC50, inhibition of intracellular autophosphorylation of RET at tyrosine 1062, V804M cells
# T2 construct: expressed in transfected cells; host or cells: HEK293; the other entry of the earlier key: KIF5B (P33176, Kinesin-1 heavy chain)
# T2 sequence (P07949 713-1063 V804M limits assumed): T1 sequence (P07949 713-1063 limits assumed) with V92M
# Description: as §1
# [3] = target: T3, KIF5B-RET mutant form G810S in HEK293 cells (Homo sapiens, UniProt P07949, G810S); assay: RET cell assay (In-Cell Western, phospho-RET Y1062), G810S; assay type: cell-based; conditions: HEK293, doxycycline-induced KIF5B-RET G810S, 1 hr compound treatment; read-out: EC50, inhibition of intracellular autophosphorylation of RET at tyrosine 1062, G810S cells
# T3 construct: expressed in transfected cells; host or cells: HEK293; the other entry of the earlier key: KIF5B (P33176, Kinesin-1 heavy chain)
# T3 sequence (P07949 713-1063 G810S limits assumed): T1 sequence (P07949 713-1063 limits assumed) with G98S
# Description: as §1
melting point [°C],EC50 [1] [nM],EC50 [2] [nM],EC50 [3] [nM],Compound
128,–,–,–,"CC(C(=O)Nc1cc(CC(C)(C)C)no1)c1ccc(-c2nn(C(C)C)c(N)c2C(N)=O)cc1 (single isomer, unassigned; isomer 2) [Example 2, 5-Amino-3-[4-(1-[[3-(2,2-dimethylpropyl)-1,2-oxazol-5-yl]carbamoyl]ethyl)phenyl]-1-isopropylpyrazole-4-carboxamide, Isomer 2]"
–,< 100,< 100,< 100,"CC(C(=O)Nc1cc(C(C)(C)C(F)(F)F)on1)c1ccc(-c2nn(C3(C)CC3)c(N)c2C(N)=O)nc1 (single isomer, unassigned; isomer 1) [Example 31, 5-Amino-1-(1-methylcyclopropyl)-3-[5-[(1-[[5-[1,1,1-trifluoro-2-methylpropan-2-yl)-1,2-oxazol-3-yl]carbamoyl]ethyl]pyridin-2-yl]pyrazole-4-carboxamide, Isomer 1]"
–,< 100,< 100,< 100,"CC(C(=O)Nc1cc(CC(C)(C)C)no1)c1ccc(-c2nn(C3(C)CC3)c(N)c2C(N)=O)nc1 (single isomer, unassigned; isomer 1) [Example 33, 5-Amino-3-[5-[1-[[3-(2,2-dimethylpropyl)-1,2-oxazol-5-yl]carbamoyl]ethyl]pyridin-2-yl]-1-(1-methylcyclopropyl)pyrazole-4-carboxamide, Isomer 1]"
